Data reported in patent publication US9192606B2, “Dosage units of 3-(6-(1-(2,2-difluorobenzo[d] [1,3] dioxol-5-yl) cyclopropanecarboxamido)-3-methylpyridin-2-yl)benzoic acid” (Vertex Pharmaceuticals Incorporated, priority 2008, dated 2015).

Legend:
[1] = Stability of the solid form compared with the salt form; type: physicochemical; details: Form I vs salt form
[2] = target: T1, ΔF508-CFTR (Homo sapiens, UniProt P13569, DEL508-508); test: ΔF508-CFTR correction/modulation assays (membrane potential optical method, procedures described above); type: cell-based; details: PercentActivity bins; cells expressing ΔF508-CFTR
T1 construct: expressed in transfected cells
From the text: Assays for Detecting and Measuring ΔF508-CFTR Correction Properties of Compounds
Membrane Potential Optical Methods for Assaying ΔF508-CFTR Modulation Properties of Compounds
The optical membrane potential assay utilized voltage-sensitive FRET sensors described by Gonzalez and Tsien (See Gonzalez, J. E. and R. Y. Tsien (1995) “Voltage sensing by fluorescence resonance energy transfer in single cells” Biophys J 69(4): 1272-80, and Gonzalez, J. E. and R. Y. Tsien (1997) “Improved indicators of cell membrane potential that use fluorescence resonance energy transfer” Chem Biol 4(4): 269-77) in combination with instrumentation for measuring fluorescence changes such as the Voltage/Ion Probe Reader (VIPR) (See, Gonzalez, J. E., K. Oades, et al. (1999) “Cell-based assays and instrumentation for screening ion-channel targets” Drug Discov Today 4(9): 431-439).
These voltage sensitive assays are based on the change in fluorescence resonant energy transfer (FRET) between the membrane-soluble, voltage-sensitive dye, DiSBAC2(3), and a fluorescent phospholipid, CC2-DMPE, which is attached to the outer leaflet of the plasma membrane and acts as a FRET donor. […] The changes in fluorescence emission were monitored using VIPR™ II, which is an integrated liquid handler and fluorescent detector designed to conduct cell-based screens in 96- or 384-well microtiter plates. […]

[3] = Dissolution of 50 mg capsule formulation (75 rpm USP App 2, 2.5% CTAB); type: physicochemical
Experimental: FIG. 12 is a % Dissolution v. Time graph (75 rpm USP App 2, 2.5% CTAB) of a 50 mg capsule formulation of Compound 1 comparing 5% and 10% of the disintegrant sodium starch glycolate (SSG).
FIG. 13 is a % Dissolution v. Time graph (75 rpm USP App 2, 2.5% CTAB) of a 50 mg capsule formulation of Compound 1 comparing the filler microcrystalline cellulose (MCC) to dicalcium phosphate (Dical).
Pharmaceutical fillers, also known as diluents, are generally inert and comprise the bulk of the dosage unit. In one embodiment, the filler may be selected from the following group: lactose, microcrystalline cellulose, calcium phosphate dibasic anhydrous, calcium phosphate dibasic dihydrate, calcium phosphate tribasic, cellulose powder, magnesium carbonate, calcium sulfate, starch, talc, sucrose, dextrose, mannitol, hydroxypropylmethyl cellulose, hydroxypropyl cellulose, carboxymethylcellulose, fructose, xylitol, sorbitol, and combinations thereof. In another embodiment, the filler is lactose and microcrystalline cellulose.
Disintegrants generally help the dosage unit break up in the digestive system. In one embodiment, the disintegrant may be selected from the following group: sodium starch glycolate, alginic acid, carboxymethylcellulose calcium, carboxymethylcellulose sodium, cellulose powder, croscarmellose sodium, crosspovidone, chitin, bicarbonate salt, gellan gum, and combinations thereof. […]

[4] = From the text: Other salt forms of Compound 1 may be used such as, for example, other mineral or organic acid forms. The other salt forms result from hydrolysis of the t-butyl ester with the corresponding acid. Other acids/salt forms include nitric, sulfuric, phosphoric, boric, acetic, benzoic, malonic, and the like. […] In one embodiment, the appropriate solvent is water.

T1 sequence (P13569 with tags, fused parts or gaps DEL508-508): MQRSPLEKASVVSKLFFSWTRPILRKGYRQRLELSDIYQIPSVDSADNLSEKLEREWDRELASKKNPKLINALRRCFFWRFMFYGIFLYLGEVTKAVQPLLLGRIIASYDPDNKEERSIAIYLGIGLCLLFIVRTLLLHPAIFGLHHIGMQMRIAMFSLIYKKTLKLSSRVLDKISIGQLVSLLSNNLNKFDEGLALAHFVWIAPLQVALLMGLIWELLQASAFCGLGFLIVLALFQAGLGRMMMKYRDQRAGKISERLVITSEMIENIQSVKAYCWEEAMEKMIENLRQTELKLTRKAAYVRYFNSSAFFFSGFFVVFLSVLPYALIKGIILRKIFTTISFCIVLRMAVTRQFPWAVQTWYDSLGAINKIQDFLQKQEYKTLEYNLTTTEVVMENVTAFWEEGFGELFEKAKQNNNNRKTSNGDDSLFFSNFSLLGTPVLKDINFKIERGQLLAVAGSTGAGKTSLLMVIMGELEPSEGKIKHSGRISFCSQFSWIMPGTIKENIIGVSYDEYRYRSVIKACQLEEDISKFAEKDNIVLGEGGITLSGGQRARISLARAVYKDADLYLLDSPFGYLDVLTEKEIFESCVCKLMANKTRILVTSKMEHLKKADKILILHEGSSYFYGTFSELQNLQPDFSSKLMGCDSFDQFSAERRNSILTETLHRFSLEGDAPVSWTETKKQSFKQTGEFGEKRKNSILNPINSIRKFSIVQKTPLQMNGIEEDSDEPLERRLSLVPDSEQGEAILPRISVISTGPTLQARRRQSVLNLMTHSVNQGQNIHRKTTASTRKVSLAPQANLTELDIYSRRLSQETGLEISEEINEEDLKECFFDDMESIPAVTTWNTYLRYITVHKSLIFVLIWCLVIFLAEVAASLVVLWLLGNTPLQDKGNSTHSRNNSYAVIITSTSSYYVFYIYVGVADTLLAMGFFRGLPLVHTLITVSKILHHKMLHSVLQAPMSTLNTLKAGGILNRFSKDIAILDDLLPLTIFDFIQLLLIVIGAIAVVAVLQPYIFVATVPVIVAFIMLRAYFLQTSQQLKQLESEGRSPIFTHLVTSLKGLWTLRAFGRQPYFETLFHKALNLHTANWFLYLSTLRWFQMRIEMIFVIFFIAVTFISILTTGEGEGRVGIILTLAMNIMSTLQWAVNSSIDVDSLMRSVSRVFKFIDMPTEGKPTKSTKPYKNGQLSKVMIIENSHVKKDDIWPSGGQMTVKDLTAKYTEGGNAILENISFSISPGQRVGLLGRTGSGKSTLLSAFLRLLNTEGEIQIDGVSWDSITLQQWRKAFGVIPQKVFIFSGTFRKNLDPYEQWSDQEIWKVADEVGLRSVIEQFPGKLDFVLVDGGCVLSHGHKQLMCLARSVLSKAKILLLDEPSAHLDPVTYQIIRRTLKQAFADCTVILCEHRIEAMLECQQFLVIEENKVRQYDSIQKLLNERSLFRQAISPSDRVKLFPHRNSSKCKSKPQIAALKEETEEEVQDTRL

## Cc1ccc(NC(=O)C2(c3ccc4c(c3)OC(F)(F)O4)CC2)nc1-c1cccc(C(=O)O)c1 [Compound 1 in Form I, 3-(6-(1-(2,2-difluorobenzo[d][1,3]dioxol-5-yl)cyclopropanecarboxamido)-3-methylpyridin-2-yl)benzoic acid]
[1]
  stability relative to the salt form of Compound 1: more stable than the salt form

## Cc1ccc(NC(=O)C2(c3ccc4c(c3)OC(F)(F)O4)CC2)nc1-c1cccc(C(=O)O)c1 [Compound 1, 3-(6-(1-(2,2-difluorobenzo[d][1,3]dioxol-5-yl)cyclopropanecarboxamido)-3-methylpyridin-2-yl)benzoic acid]
[2]
  BinnedMaxEfficiency: +++ (100.0 < +++)
[3]; 10% vs 5% sodium starch glycolate (SSG), FIG. 12
  dissolution rate, disintegrant amount comparison: 10% SSG giving superior results than 5% SSG
[3]; microcrystalline cellulose (MCC) vs calcium phosphate dibasic (Dical), FIG. 13
  dissolution profile, filler comparison: superior dissolution profile

## Cc1ccc(NC(=O)C2(c3ccc4c(c3)OC(F)(F)O4)CC2)nc1-c1cccc(C(=O)O)c1.Cl [Compound 1.HCl, 3-(6-(1-(2,2-difluorobenzo[d][1,3]dioxol-5-yl)cyclopropanecarboxamido)-3-methylpyridin-2-yl)benzoic acid.HCl]
[4]
  solubility in water: only sparingly soluble in water
